Legend:
lipoamide = compound: NC(=O)CCCCC1CCSS1 [lipoamide]; test: thermal stability z-score vs DMSO; higher = more thermally stabilized by treatment; conditions: HeLa, lipoamide concentration 100 µM
Protocol: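 Cellular thermal proteome profiling in HeLa cells. Cells were treated with 100 µM lipoamide for 1 h, with or without 1 mM arsenate for a further 1 h, then heated to ten temperatures (37-66.3 °C), and soluble protein was quantified by TMT mass spectrometry relative to 0.1% DMSO controls. The thermal stability score (sum of log2 fold changes minus the abundance score) was transformed to a z-score; mean of n = 3 experiments.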

potassium arsenate = compound: O=[As]([O-])(O)O.[K+] [potassium arsenate]; test: as above; conditions: HeLa; arsenate concentration 1 mM
Protocol: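 Cellular thermal proteome profiling in HeLa cells treated with 1 mM arsenate for 1 h (DMSO pretreatment), heated to ten temperatures (37-66.3 °C). Soluble protein was quantified by TMT mass spectrometry relative to DMSO controls; the thermal stability score was transformed to a z-score; mean of n = 3 experiments.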

[1] = arsenate co-treatment: 1 mM arsenate 1 h
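Further: each temperature applied for 3 min, abundance score taken as mean log2 fold change at the two lowest temperatures, z-score obtained by mean subtraction and division by SD.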

## SLC38A2 (UniProt Q96QD8)
lipoamide; [1]
  thermal stability z-score: 0.351
lipoamide; arsenate co-treatment: none
  thermal stability z-score: 0.272
Potassium arsenate
  thermal stability z-score: 0.774

## SLC38A5 (UniProt Q8WUX1)
Sequence of UniProt Q8WUX1 (Q8WUX1 whole entry): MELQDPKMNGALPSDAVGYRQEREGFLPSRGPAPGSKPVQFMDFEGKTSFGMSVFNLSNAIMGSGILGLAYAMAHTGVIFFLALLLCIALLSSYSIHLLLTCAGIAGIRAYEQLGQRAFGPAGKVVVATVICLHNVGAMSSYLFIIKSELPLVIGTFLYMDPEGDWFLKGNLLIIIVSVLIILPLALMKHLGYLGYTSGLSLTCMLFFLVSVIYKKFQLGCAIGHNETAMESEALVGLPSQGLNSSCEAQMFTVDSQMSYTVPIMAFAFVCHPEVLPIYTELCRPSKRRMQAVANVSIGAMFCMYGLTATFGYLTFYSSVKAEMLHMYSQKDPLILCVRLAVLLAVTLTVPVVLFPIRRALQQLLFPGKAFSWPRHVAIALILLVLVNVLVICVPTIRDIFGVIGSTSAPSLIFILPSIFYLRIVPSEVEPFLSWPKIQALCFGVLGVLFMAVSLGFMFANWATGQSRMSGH
lipoamide; [1]
  thermal stability z-score: 0.333
lipoamide; arsenate co-treatment: none
  thermal stability z-score: -0.181
Potassium arsenate
  thermal stability z-score: -0.311

## SLC38A7 (UniProt Q9NVC3)
lipoamide; [1]
  thermal stability z-score: -0.543
lipoamide; arsenate co-treatment: none
  thermal stability z-score: -0.964
Potassium arsenate
  thermal stability z-score: -0.442

## SLC38A10 (UniProt Q9HBR0)
lipoamide; [1]
  thermal stability z-score: 0.639
lipoamide; arsenate co-treatment: none
  thermal stability z-score: 0.226
Potassium arsenate
  thermal stability z-score: -0.0408

## SLC39A6 (UniProt Q13433)
lipoamide; [1]
  thermal stability z-score: -0.119
lipoamide; arsenate co-treatment: none
  thermal stability z-score: 0.454
Potassium arsenate
  thermal stability z-score: 0.868

## SLC39A7 (UniProt Q92504)
lipoamide; [1]
  thermal stability z-score: -1.65
lipoamide; arsenate co-treatment: none
  thermal stability z-score: -0.943
Potassium arsenate
  thermal stability z-score: -0.00591

## SLC39A10 (UniProt Q9ULF5)
lipoamide; [1]
  thermal stability z-score: 0.0305
lipoamide; arsenate co-treatment: none
  thermal stability z-score: -0.329
Potassium arsenate
  thermal stability z-score: 0.177

## SLC39A11 (UniProt Q8N1S5)
Sequence of UniProt Q8N1S5 (Q8N1S5 whole entry): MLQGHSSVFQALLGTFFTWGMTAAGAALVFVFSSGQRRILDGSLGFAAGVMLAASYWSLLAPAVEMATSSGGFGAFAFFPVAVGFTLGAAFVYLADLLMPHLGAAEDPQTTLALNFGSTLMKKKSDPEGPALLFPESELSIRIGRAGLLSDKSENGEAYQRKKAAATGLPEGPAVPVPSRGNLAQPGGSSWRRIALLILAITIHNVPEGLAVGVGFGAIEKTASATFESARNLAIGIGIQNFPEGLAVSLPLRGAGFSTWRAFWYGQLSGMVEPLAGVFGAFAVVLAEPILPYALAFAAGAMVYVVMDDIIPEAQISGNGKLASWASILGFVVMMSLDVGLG
lipoamide; [1]
  thermal stability z-score: 0.867
lipoamide; arsenate co-treatment: none
  thermal stability z-score: 0.694
Potassium arsenate
  thermal stability z-score: 0.429

## SLC39A14 (UniProt Q15043)
lipoamide; [1]
  thermal stability z-score: -0.0157
lipoamide; arsenate co-treatment: none
  thermal stability z-score: -0.137
Potassium arsenate
  thermal stability z-score: -0.236

## SLC43A2 (UniProt Q8N370)
lipoamide; [1]
  thermal stability z-score: 0.846
lipoamide; arsenate co-treatment: none
  thermal stability z-score: 1.05
Potassium arsenate
  thermal stability z-score: -1.03

## SLC43A3 (UniProt Q8NBI5)
lipoamide; [1]
  thermal stability z-score: 0.34
lipoamide; arsenate co-treatment: none
  thermal stability z-score: 0.53
Potassium arsenate
  thermal stability z-score: 0.807

## SLC44A1 (UniProt Q8WWI5)
lipoamide; [1]
  thermal stability z-score: 0.347
lipoamide; arsenate co-treatment: none
  thermal stability z-score: -0.0965
Potassium arsenate
  thermal stability z-score: -0.452

## SLC44A2 (UniProt Q8IWA5)
lipoamide; [1]
  thermal stability z-score: -0.0733
lipoamide; arsenate co-treatment: none
  thermal stability z-score: -0.171
Potassium arsenate
  thermal stability z-score: -0.517

## SLC46A1 (UniProt Q96NT5)
lipoamide; [1]
  thermal stability z-score: -0.375
lipoamide; arsenate co-treatment: none
  thermal stability z-score: 0.408
Potassium arsenate
  thermal stability z-score: -1.24

## SLC52A2 (UniProt Q9HAB3)
Sequence of UniProt Q9HAB3 (Q9HAB3 whole entry): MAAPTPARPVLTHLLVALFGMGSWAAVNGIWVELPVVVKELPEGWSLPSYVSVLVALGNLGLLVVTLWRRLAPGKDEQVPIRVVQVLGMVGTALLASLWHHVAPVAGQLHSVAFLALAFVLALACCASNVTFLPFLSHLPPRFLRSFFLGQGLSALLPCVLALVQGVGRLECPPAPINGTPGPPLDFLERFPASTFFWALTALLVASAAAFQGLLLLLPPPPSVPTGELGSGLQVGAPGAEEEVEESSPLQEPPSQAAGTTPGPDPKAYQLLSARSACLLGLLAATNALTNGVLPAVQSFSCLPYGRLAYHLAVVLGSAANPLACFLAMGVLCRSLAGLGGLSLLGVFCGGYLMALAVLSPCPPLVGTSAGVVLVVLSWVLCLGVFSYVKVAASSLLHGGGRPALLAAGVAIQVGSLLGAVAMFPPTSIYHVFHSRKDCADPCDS
lipoamide; [1]
  thermal stability z-score: 0.194
lipoamide; arsenate co-treatment: none
  thermal stability z-score: 0.164
Potassium arsenate
  thermal stability z-score: -0.17

## SLCO4A1 (UniProt Q96BD0)
Sequence of UniProt Q96BD0 (Q96BD0 whole entry): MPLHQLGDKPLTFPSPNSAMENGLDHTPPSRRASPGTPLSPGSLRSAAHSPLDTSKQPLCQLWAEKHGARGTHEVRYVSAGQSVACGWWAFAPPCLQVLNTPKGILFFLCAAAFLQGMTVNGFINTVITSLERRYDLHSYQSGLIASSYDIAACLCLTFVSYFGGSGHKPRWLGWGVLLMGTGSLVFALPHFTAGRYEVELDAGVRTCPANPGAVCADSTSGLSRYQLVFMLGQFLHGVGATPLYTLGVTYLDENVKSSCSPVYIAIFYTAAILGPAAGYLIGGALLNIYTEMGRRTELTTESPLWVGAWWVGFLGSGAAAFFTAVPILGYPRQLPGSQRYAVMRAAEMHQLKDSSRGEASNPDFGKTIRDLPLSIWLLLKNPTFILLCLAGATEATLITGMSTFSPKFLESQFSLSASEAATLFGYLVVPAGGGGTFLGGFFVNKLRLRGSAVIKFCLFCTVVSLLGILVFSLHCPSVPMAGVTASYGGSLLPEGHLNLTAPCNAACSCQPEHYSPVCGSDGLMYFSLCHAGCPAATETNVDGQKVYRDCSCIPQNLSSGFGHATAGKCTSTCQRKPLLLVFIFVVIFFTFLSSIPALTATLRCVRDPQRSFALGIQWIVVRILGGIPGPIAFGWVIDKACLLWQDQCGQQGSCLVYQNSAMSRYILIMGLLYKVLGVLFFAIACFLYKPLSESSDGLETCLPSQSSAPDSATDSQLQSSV
lipoamide; [1]
  thermal stability z-score: 0.0123
lipoamide; arsenate co-treatment: none
  thermal stability z-score: -0.101
Potassium arsenate
  thermal stability z-score: 0.0663

## SLFN5 (UniProt Q08AF3)
lipoamide; [1]
  thermal stability z-score: -0.884
lipoamide; arsenate co-treatment: none
  thermal stability z-score: -1.21
Potassium arsenate
  thermal stability z-score: -0.568

## SLIRP (UniProt Q9GZT3)
lipoamide; [1]
  thermal stability z-score: -0.917
lipoamide; arsenate co-treatment: none
  thermal stability z-score: -0.197
Potassium arsenate
  thermal stability z-score: 0.123

## SLK (UniProt Q9H2G2)
Sequence of UniProt Q9H2G2 (Q9H2G2 whole entry, looked up): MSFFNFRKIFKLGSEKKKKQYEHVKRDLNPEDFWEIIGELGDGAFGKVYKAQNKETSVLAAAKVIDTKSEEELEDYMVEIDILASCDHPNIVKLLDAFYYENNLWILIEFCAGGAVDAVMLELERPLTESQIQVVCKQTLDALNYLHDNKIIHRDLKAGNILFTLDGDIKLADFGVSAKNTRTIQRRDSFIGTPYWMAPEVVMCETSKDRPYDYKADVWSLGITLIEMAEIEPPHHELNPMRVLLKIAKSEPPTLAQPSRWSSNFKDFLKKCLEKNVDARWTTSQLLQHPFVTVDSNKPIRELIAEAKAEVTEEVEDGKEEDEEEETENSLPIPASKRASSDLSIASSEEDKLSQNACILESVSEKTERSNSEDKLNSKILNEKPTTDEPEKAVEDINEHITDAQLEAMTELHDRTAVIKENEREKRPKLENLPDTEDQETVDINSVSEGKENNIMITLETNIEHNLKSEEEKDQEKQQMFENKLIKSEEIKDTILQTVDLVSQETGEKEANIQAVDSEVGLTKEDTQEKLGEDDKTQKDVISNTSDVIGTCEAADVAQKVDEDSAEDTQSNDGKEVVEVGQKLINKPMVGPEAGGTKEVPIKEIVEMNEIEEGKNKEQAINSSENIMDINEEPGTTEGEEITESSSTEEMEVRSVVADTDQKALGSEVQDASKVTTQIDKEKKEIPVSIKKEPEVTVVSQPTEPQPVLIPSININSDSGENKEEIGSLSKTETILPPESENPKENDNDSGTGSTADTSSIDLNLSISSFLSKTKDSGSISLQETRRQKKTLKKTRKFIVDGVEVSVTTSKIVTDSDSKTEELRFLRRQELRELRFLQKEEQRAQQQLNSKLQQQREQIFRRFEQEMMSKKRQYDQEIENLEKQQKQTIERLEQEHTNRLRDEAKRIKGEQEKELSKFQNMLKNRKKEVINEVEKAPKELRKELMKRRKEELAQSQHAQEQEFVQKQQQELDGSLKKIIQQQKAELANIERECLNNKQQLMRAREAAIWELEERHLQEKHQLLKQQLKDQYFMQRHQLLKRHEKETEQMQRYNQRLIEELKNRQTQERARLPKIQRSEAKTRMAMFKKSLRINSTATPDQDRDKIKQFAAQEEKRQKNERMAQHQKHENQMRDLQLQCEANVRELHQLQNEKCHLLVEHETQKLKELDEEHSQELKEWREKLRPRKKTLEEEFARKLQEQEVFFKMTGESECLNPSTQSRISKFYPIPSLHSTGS
lipoamide; [1]
  thermal stability z-score: 0.413
lipoamide; arsenate co-treatment: none
  thermal stability z-score: 0.153
Potassium arsenate
  thermal stability z-score: -0.419

## SLMAP (UniProt Q14BN4)
lipoamide; [1]
  thermal stability z-score: -0.467
lipoamide; arsenate co-treatment: none
  thermal stability z-score: -0.173
Potassium arsenate
  thermal stability z-score: 1.45

## SLTM (UniProt Q9NWH9)
lipoamide; [1]
  thermal stability z-score: 0.712
lipoamide; arsenate co-treatment: none
  thermal stability z-score: -0.493
Potassium arsenate
  thermal stability z-score: -0.561

## SLU7 (UniProt O95391)
lipoamide; [1]
  thermal stability z-score: -0.353
lipoamide; arsenate co-treatment: none
  thermal stability z-score: -0.364
Potassium arsenate
  thermal stability z-score: -0.0775

## SMAD2 (UniProt Q15796)
Sequence of UniProt Q15796 (Q15796 whole entry): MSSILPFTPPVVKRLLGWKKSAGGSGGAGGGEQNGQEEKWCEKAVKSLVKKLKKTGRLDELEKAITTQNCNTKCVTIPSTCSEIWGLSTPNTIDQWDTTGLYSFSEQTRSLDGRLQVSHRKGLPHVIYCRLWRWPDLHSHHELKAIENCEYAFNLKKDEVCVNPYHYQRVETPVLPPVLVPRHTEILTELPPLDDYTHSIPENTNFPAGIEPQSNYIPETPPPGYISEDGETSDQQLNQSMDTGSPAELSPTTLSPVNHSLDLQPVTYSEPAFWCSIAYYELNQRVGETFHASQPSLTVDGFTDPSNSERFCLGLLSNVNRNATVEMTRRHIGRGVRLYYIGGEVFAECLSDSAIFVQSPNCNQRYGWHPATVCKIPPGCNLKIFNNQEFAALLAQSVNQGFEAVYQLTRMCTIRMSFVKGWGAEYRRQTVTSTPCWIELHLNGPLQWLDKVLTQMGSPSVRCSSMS
lipoamide; [1]
  thermal stability z-score: -0.492
lipoamide; arsenate co-treatment: none
  thermal stability z-score: 0.118
Potassium arsenate
  thermal stability z-score: -1.26

## SMAD4 (UniProt Q13485)
lipoamide; [1]
  thermal stability z-score: -0.233
lipoamide; arsenate co-treatment: none
  thermal stability z-score: -0.519
Potassium arsenate
  thermal stability z-score: -0.746

## SMAP1 (UniProt Q8IYB5)
lipoamide; [1]
  thermal stability z-score: -0.131
lipoamide; arsenate co-treatment: none
  thermal stability z-score: -0.152
Potassium arsenate
  thermal stability z-score: -0.139

## SMAP2 (UniProt Q8WU79)
lipoamide; [1]
  thermal stability z-score: -1.95
lipoamide; arsenate co-treatment: none
  thermal stability z-score: -0.774
Potassium arsenate
  thermal stability z-score: -1.45

## SMAP (UniProt O00193)
lipoamide; [1]
  thermal stability z-score: 0.384
lipoamide; arsenate co-treatment: none
  thermal stability z-score: 0.48
Potassium arsenate
  thermal stability z-score: -0.154

## SMARCA2 (UniProt P51531)
lipoamide; [1]
  thermal stability z-score: -0.0738
lipoamide; arsenate co-treatment: none
  thermal stability z-score: -0.0901
Potassium arsenate
  thermal stability z-score: -0.174

## SMARCA4 (UniProt P51532)
lipoamide; [1]
  thermal stability z-score: 0.212
lipoamide; arsenate co-treatment: none
  thermal stability z-score: 0.272
Potassium arsenate
  thermal stability z-score: -0.673

## SMARCA5 (UniProt O60264)
lipoamide; [1]
  thermal stability z-score: 0.76
lipoamide; arsenate co-treatment: none
  thermal stability z-score: 1.44
Potassium arsenate
  thermal stability z-score: -0.922

## SMARCAD1 (UniProt Q9H4L7)
lipoamide; [1]
  thermal stability z-score: -1.27
lipoamide; arsenate co-treatment: none
  thermal stability z-score: -0.234
Potassium arsenate
  thermal stability z-score: -0.159

## SMARCAL1 (UniProt Q9NZC9)
lipoamide; [1]
  thermal stability z-score: 0.0881
lipoamide; arsenate co-treatment: none
  thermal stability z-score: -0.0213
Potassium arsenate
  thermal stability z-score: -0.0552

## SMARCB1 (UniProt Q12824)
lipoamide; [1]
  thermal stability z-score: -0.25
lipoamide; arsenate co-treatment: none
  thermal stability z-score: -0.186
Potassium arsenate
  thermal stability z-score: -0.198

## SMARCC1 (UniProt Q92922)
lipoamide; [1]
  thermal stability z-score: 0.791
lipoamide; arsenate co-treatment: none
  thermal stability z-score: 1.14
Potassium arsenate
  thermal stability z-score: -0.204

## SMARCC2 (UniProt Q8TAQ2)
Sequence of UniProt Q8TAQ2 (Q8TAQ2 whole entry): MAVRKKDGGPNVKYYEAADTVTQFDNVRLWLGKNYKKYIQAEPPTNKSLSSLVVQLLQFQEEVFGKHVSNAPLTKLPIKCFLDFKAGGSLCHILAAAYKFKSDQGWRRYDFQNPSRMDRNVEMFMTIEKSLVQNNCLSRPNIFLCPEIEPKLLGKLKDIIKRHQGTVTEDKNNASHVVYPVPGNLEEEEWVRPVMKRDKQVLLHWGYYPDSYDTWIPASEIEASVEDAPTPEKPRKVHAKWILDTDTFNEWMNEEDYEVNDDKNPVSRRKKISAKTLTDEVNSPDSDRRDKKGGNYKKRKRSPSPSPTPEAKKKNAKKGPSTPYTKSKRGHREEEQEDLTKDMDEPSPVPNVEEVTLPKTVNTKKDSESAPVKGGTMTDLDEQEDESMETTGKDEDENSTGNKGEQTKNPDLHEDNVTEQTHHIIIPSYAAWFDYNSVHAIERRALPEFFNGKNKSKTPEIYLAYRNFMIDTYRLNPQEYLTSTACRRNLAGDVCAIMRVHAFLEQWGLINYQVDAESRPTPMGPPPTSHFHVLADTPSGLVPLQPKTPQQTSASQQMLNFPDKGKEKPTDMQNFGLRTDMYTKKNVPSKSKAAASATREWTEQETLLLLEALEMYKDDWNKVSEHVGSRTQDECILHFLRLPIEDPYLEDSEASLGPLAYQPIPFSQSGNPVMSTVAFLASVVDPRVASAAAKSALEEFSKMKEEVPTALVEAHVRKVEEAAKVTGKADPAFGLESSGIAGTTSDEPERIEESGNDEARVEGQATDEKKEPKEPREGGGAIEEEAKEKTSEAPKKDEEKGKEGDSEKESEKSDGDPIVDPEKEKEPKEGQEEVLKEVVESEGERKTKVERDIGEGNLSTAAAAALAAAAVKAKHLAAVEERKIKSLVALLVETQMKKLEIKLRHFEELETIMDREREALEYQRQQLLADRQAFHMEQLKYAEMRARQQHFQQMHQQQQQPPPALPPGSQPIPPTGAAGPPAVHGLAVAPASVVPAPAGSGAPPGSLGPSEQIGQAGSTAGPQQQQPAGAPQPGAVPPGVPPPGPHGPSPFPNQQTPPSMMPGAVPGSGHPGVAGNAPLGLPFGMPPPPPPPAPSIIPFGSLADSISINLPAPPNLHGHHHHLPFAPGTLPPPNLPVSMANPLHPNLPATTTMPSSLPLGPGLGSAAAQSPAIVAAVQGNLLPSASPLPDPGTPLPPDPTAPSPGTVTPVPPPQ
lipoamide; [1]
  thermal stability z-score: 1.35
lipoamide; arsenate co-treatment: none
  thermal stability z-score: 1.85
Potassium arsenate
  thermal stability z-score: 0.305

From the supplement of paper PMC12463676, “Small-molecule dissolution of stress granules by redox modulation benefits ALS models” (Nature Chemical Biology, 2025)
